The source of these data is BindingDB's records for doi:10.1021/jm021012t (F. Hoffmann-La Roche, 2003).

The target in data set [1] is T1, P-glycoprotein (ABCB1, MDR1) (Homo sapiens, UniProt P08183). Description: Inhibition of P-glycoprotein, human L-MDR1 expressed in LLC-PK1 epithelial cells using calcein-AM polarisation assay. The settings on record: LLC-PK1 epithelial cells expressing human MDR1 (L-MDR1), probe calcein-AM.
For data set [2], the target named is T1, P-glycoprotein (ABCB1, MDR1). Description: TP_TRANSPORTER: inhibition of Calcein-AM efflux in MDR1-expressing LLC-PK1 cells. As to conditions: probe calcein-AM.

T1 sequence (P08183 whole entry): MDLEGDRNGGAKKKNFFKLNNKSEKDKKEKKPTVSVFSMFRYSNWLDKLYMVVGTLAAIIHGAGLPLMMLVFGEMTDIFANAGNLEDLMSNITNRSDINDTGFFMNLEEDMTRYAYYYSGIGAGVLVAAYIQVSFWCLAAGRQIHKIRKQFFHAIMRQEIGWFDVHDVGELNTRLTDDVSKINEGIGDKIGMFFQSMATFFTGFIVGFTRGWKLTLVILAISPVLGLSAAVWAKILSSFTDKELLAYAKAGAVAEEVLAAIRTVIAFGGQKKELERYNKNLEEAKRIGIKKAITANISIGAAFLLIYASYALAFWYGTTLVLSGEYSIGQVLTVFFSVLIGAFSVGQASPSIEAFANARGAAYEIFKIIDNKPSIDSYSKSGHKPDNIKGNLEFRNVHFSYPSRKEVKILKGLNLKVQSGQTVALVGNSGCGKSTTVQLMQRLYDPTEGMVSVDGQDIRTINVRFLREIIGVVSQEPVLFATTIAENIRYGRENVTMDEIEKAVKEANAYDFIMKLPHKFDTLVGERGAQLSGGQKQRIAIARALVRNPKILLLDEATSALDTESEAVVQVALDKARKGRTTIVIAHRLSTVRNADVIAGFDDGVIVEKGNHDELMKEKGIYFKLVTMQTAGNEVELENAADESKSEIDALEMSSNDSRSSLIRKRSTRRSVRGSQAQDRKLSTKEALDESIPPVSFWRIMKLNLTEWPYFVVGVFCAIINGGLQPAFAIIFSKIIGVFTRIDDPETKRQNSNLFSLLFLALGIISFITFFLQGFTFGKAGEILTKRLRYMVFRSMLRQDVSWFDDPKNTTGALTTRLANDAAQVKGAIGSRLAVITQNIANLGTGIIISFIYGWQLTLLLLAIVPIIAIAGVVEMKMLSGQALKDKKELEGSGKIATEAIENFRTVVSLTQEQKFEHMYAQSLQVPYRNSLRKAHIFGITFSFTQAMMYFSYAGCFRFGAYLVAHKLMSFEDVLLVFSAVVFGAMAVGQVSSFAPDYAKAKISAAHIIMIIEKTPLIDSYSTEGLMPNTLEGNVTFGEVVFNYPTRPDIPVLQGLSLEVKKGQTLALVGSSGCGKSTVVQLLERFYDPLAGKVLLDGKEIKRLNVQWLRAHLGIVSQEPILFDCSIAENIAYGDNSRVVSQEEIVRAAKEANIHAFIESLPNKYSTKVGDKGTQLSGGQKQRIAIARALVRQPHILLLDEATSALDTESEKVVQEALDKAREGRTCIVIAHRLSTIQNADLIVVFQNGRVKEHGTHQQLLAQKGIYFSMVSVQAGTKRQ

One may read the IC50 as the point on the concentration scale where inhibition reaches its midpoint. For `CC[C@H](C)[C@H]1O[C@]2(CC[C@@H]1C)C[C@@H]1C[C@@H](C/C=C(\C)[C@@H](O[C@H]3C[C@H](OC)[C@@H](O[C@H]4C[C@H](OC)[C@@H](O)[C@H](C)O4)[C@H](C)O3)[C@@H](C)/C=C/C=C3\CO[C@@H]4[C@H](O)C(C)=C[C@@H](C(=O)O1)[C@]34O)O2` [ABAMECTIN], the 50% inhibitory concentration (IC50) in data set [1] and in data set [2] was 100 nM each time.
